The subject of data set [1] is Sprague Dawley rats. Description: rat electrocardiogram/electrophysiology model, 20-min continuous intravenous infusion. The format is in vivo. The following applies: for Percent change AH / Percent change ARP / Percent change AVRP / Percent change HR / Percent change HV / Percent change MAP / Percent change PR / Percent change QRS / Percent change QT / Percent change QTc / Percent change VRP: after a 20 min infusion, ± se. On the procedure: (§1) Adult, male Sprague Dawley rats (240-280 g) were used for all studies. Rats were anesthetized with a mixture of ketamine:xylazine (85 mg/kg:5 mg/kg, ip). Catheters were placed in the left femoral artery and left femoral vein for the measurement of arterial pressure and the administration of test agents, respectively. In addition, a catheter was placed in the right femoral vein to administer a continuous infusion of ketamine:xylazine (45 mg/kg/hr:1.5 mg/kg/hr). A recording/stimulating catheter was then placed in the right jugular vein and advanced to the right atrium. Two electrodes were used to obtain bipolar atrial electrogram recording, and two were used for bipolar pacing of the atria/heart. The right carotid artery was then cannulated with a second recording/stimulating catheter, and the catheter was advance into the left ventricle. Two electrodes were used to obtain bipolar ventricular and His bundle electrograms, and two were used to pace the ventricle. Needle electrodes were placed subcutaneously in the right axillary and left inguinal areas to record lead II electrocardiogram. After equilibration and baseline readings, continuous infusion of test agent or vehicle was started and readings taken at 10 min and 20 min after start of infusion. Blood samples for plasma analysis were obtained from the femoral artery catheter at 10 and 20 min after the start of the infusion. Atrial effective (ARP), ventricular effective (VRP), and AV node effective (AVRP) refractory periods determined as follows: excitation threshold was determined for the atria and ventricles, then a conditioning train of stimuli (S1, 1 ms duration) at a cycle length of 150 ms was delivered at 1×-2× threshold followed by an extrastimulus (S2, 1 ms duration) at 2× threshold. The S1—S2 coupling interval was decreased by 5 ms, then 1 ms intervals to obtain refractory periods. ARP and VRP were defined as the shortest coupling interval that permitted propagation of an atrial or ventricular extrastimulus. AVRP was defined as the shortest coupling interval that permitted the propagation of the atria extrastimulus through the AV node to elicit ventricular depolarization. In addition, PR, AH (both a measure of AV nodal conduction) and HV (a measure of His-Purkinje conduction) intervals were measured during short (10-20 sec) trains of fixed S1—S1 interval pacing of 150 ms. QT interval was obtained during sinus rhythm. […] Am J Physiol. 1998;274:H747-51) were reported. Compounds were dissolved in either saline or N,N-dimethylformamide. Intravenous infusion of test agents or vehicles was normalized to body weight.
In an extension of these studies to longer duration infusions, 3-[(dimethylamino)methyl]-6-methoxy-2-methyl-4-phenylisoquinolin-1(2H)-one hydrochloride and (2-isopropyl-5-methylcyclohexyl)(diphenyl)phosphine oxide were tested in a 20-min intravenous continuous infusion protocol. […] Plasma levels of 3-[(dimethylamino)methyl]-6-methoxy-2-methyl-4-phenylisoquinolin-1(2H)-one hydrochloride at 10 and 20 min after the start of a 0.1 mg/kg/min infusion were 3.4±0.2 μM and 2.8±0.3 μM, respectively.

Data set [2] is described as follows: plasma levels during continuous intravenous infusion. The format is in vivo, rat. To be noted: for concentration at 10 min / concentration at 20 min: male, Sprague Dawley, rat, plasma, intravenous; for concentration at 10 min: 10 min after start; for concentration at 20 min: 20 min after start. On the procedure: as §1
Data set [3] deals with Sprague Dawley rats. Description: rat electrocardiogram/electrophysiology model, 5-min intravenous infusion paradigm. The format is in vivo. To be noted: readings immediately after the infusion, dose dependent. Here is the method:
as §1
Two infusion paradigms were tested with two structurally distinct Kv1.5 antagonists, 3-[(dimethylamino)methyl]-6-methoxy-2-methyl-4-phenylisoquinolin-1(2H)-one hydrochloride (described in WO 02/24655 A1) and (2-isopropyl-5-methylcyclohexyl)(diphenyl)phosphine oxide (described in U.S. Pat. No. 6,214,809 B1). In an initial shorter duration infusion paradigm, a 5-min intravenous infusion of compound or vehicle was administered with electrocardiogram/electrophysiology readings determined immediately after the infusion.

[4] abbreviates: 20-min infusion, dose that produced a similar increase in VRP as the Kv1.5 antagonists.
The mark [5] stands for this setting: 0.1 mg/kg/min, 20-min after start of infusion.
The mark [6] stands for this setting: 0.1 mg/kg/min, 10 min after start of infusion.
[7] abbreviates: 0.2 mg/kg/min, DMF vehicle, 20-min infusion.
Setting [8] is: 0.2 mg/kg/min, saline vehicle, 10-min post infusion.
Setting [9] is: 0.2 mg/kg/min, saline vehicle, 20 min after start of infusion.
[10] abbreviates: 0.2 mg/kg/min, 10-min post infusion.
Setting [11] is: 0.2 mg/kg/min, listed as (2-isopropyl-5-methylcyclohexyl)(diphenyl)phosphine oxide.
[12] abbreviates: dose that caused a similar decrease in blood pressure as 0.03 mg/kg/min amlodipine.
Setting [13] is: doses that caused similar blood pressure lowering as higher infusion rates of amlodipine.

Molecules are shown by their SMILES.

For the compound `CS(=O)(=O)Nc1ccc2c(c1)C(O)CC1(CCN(C3CCc4cc(C#N)ccc4C3)CC1)O2.Cl` [Ikr blocker, N-[1′-(6-cyano-1,2,3,4-tetrahydro-2(R)-naphthalenyl)-3,4-dihydro-4(R)-hydroxyspiro[2H-1-benzopyran-2,4′-piperidin]-6-YL]-,(+)-,monohydrochloride], in data set [1] (0.0001 mg/kg/min), the “Percent change AH” value is on record as 2 ± 1%, the “Percent change ARP” value came out at 0 ± 2%, the “Percent change AVRP” value worked out at 1 ± 2% and the “Percent change HR” value was −1 ± 5%. For the same compound, in data set [1] (0.0001 mg/kg/min), the “Percent change HV” value is recorded as −1 ± 1%, the “Percent change MAP” value is −7 ± 8%, the “Percent change PR” value stood at 2 ± 2% and the “Percent change QRS” value was 0 ± 1%. Moreover, in data set [1] (0.0001 mg/kg/min), the “Percent change QT” value is 1 ± 1%, the “Percent change QTc” value amounted to 0 ± 2% and the “Percent change VRP” value was −2 ± 1%. Moreover, in data set [1] (0.001 mg/kg/min), the “Percent change AH” value is reported as 9 ± 1%, the “Percent change ARP” value is reported as 2 ± 4%, the “Percent change AVRP” value amounted to 11 ± 1% and the “Percent change HR” value stood at 3 ± 4%. In data set [1] (0.001 mg/kg/min), the “Percent change HV” value was −4 ± 3%, the “Percent change MAP” value was −1 ± 3%, the “Percent change PR” value stood at 8 ± 1% and the “Percent change QRS” value stood at 3 ± 1%. Also, in data set [1] (0.001 mg/kg/min), the “Percent change QT” value is −1 ± 1%, the “Percent change QTc” value is reported as 1 ± 1% and the “Percent change VRP” value is listed as 0 ± 1%. Also, in data set [1] (0.03 mg/kg/min), the “Percent change AH” value stood at 13 ± 4%, the “Percent change ARP” value was 4 ± 4%, the “Percent change AVRP” value is listed as 21 ± 3% and the “Percent change HR” value stood at 22 ± 5%. Also, in data set [1] (0.03 mg/kg/min), the “Percent change HV” value worked out at 4 ± 3%, the “Percent change MAP” value is given as 18 ± 5%, the “Percent change PR” value worked out at 9 ± 4% and the “Percent change QRS” value stood at 0 ± 1%. Further, in data set [1] (0.03 mg/kg/min), the “Percent change QT” value is 11 ± 3%, the “Percent change QTc” value is on record as 23 ± 5% and the “Percent change VRP” value came out at 7 ± 2%. Besides, in data set [1] (setting [4]), the “increase in AH interval (delay in AV node conduction)” value was about 13%, the “increase in AVRP” value turned out to be 21%, the “increase in HR” value is given as 22% and the “increase in MAP” value came out at 18%. For the same compound, in data set [1] (infusion of lower doses), the ARP entry is “no change”, the AVRP entry was “significant changes” and the VRP result is recorded as “no change”. In addition, in data set [2] (setting [4]), the plasma concentrations was about 0.6 µM. In addition, the plasma concentration in data set [2] (infusion of lower doses) came out at 0.027 µM.
As to `CCOC(=O)C1=C(COCCN)NC(C)=C(C(=O)OC)C1c1ccccc1Cl` (centres unmarked) [amlodipine], the “decrease in blood pressure” value in data set [1] (0.03 mg/kg/min for 20 min) is −14%. Further, in data set [1] (higher infusion rates), the “decrease in blood pressure” value is given as 30%, the “increase in AV nodal conduction” value stood at 6% and the “increase in AV nodal refractoriness” value was 7%.
Regarding `COc1ccc2c(=O)n(C)c(CN(C)C)c(-c3ccccc3)c2c1.Cl` [compound 1, 3-[(dimethylamino)methyl]-6-methoxy-2-methyl-4-phenylisoquinolin-1(2H)-one hydrochloride], in data set [1] (setting [5]), the ARP result is given as “no change”, the “increase in QT” value amounted to 10%, the “increase in QTc” value stood at 16% and the “increase in VRP” value is 5%. Further, in data set [1] (setting [5]), the “increase in heart rate” value came out at 5%. In data set [1] (setting [6]), the ARP result is listed as “no change”, the QT entry is “slight increase”, the QTc result is reported as “slight increase” and the VRP entry was “no change”. For the same compound, in data set [1] (setting [7]), the “increase in ARP” value is reported as 8%, the “increase in QT” value was 11% and the “increase in VRP” value was found to be 13%. In addition, in data set [1] (0.2 mg/kg/min), the “Percent change AH” value was 5 ± 1%, the “Percent change ARP” value was determined as 5 ± 3%, the “Percent change AVRP” value was found to be 4 ± 2% and the “Percent change HR” value is −1 ± 4%. In data set [1] (0.2 mg/kg/min), the “Percent change HV” value is reported as 0 ± 3%, the “Percent change MAP” value is reported as 2 ± 2%, the “Percent change PR” value was 3 ± 1% and the “Percent change QRS” value is reported as 0 ± 0%. In data set [1] (0.2 mg/kg/min), the “Percent change QT” value stood at 12 ± 2%, the “Percent change QTc” value was 11 ± 2% and the “Percent change VRP” value was determined as 13 ± 1%. Further, in data set [1] (setting [8]), the QT result is recorded as “significant increases” and the VRP result is reported as “significant increases”. In addition, in data set [1] (setting [9]), the “change in RR interval” value is −17%, the heart rate entry is recorded as “significant increases”, the “increase in ARP” value is 12% and the “increase in QT interval” value is on record as 14%. Besides, in data set [1] (setting [9]), the “increase in QTc” value is reported as 24% and the “increase in VRP” value was determined as 11%. In addition, in data set [3], the ARP entry is “increases”, the QT interval entry is listed as “increases” and the VRP entry was “increases”. For the same compound, the “plasma levels, saline group versus DMF group” value in data set [2] (0.2 mg/kg/min, dissolved in saline or DMF) was “similar”. In data set [2] (0.1 mg/kg/min infusion), this compound registered a concentration at 10 min of 3.4 ± 0.2 µM and a concentration at 20 min of 2.8 ± 0.3 µM. Moreover, in data set [2] (0.2 mg/kg/min infusion), the concentration at 10 min turned out to be 6.3 ± 0.5 µM and the concentration at 20 min stood at 5.5 ± 0.2 µM.
With `CC1CCC(C(C)C)C(P(=O)(c2ccccc2)c2ccccc2)C1` (centres unmarked) [compound 2, (2-isopropyl-5-methylcyclohexyl)(diphenyl)phosphine oxide], in data set [1] (setting [10]), the ARP result is given as “significant increases”, the QT entry is on record as “significant increases” and the VRP entry is given as “significant increases”. Moreover, in data set [1] (0.2 mg/kg/min), the “Percent change AH” value is −1 ± 1%, the “Percent change ARP” value was 26 ± 4%, the “Percent change AVRP” value was −1 ± 1% and the “Percent change HR” value is listed as 8 ± 6%. Besides, in data set [1] (0.2 mg/kg/min), the “Percent change HV” value was −8 ± 3%, the “Percent change MAP” value is listed as 4 ± 4%, the “Percent change PR” value is listed as −3 ± 1% and the “Percent change QRS” value is on record as −3 ± 4%. Moreover, in data set [1] (0.2 mg/kg/min), the “Percent change QT” value was found to be 27 ± 7%, the “Percent change QTc” value was 33 ± 8% and the “Percent change VRP” value was determined as 22 ± 5%. Also, in data set [1] (setting [11]), the “Percent change ARP” value is 24%, the “Percent change QT” value is 27%, the “Percent change QTc” value was determined as 33% and the “Percent change VRP” value worked out at 22%. In data set [3], the ARP entry was “increases”, the QT interval entry was “increases” and the VRP result is given as “increases”.
Take `COc1ccc([C@@H]2Sc3ccccc3N(CCN(C)C)C(=O)[C@@H]2OC(C)=O)cc1` [diltiazem]: in data set [1] (setting [12]), the “decrease in heart rate” value was 12%, the “increase in AV nodal conduction” value turned out to be 9% and the “increase in AV nodal refractoriness” value was 10%. In data set [1] (setting [13]), the blood pressure lowering is 23%, the “increase in AV nodal conduction” value is 15% and the “increase in AV nodal refractoriness” value turned out to be 19%.
Consider `CCN(CC)CCNC(=O)c1ccc(N)cc1` [procainamide], for which, in data set [1] (infusion at increasing rates), the HV interval entry is recorded as “dose-dependent increases”, the QRS interval result is listed as “dose-dependent increases”, the blood pressure entry is recorded as “without having significant effects” and the heart rate entry is listed as “without having significant effects”.
